Assay results reported in PMC8352664 (The Journal of Biological Chemistry, 2021).

How the values were obtained:
Format in all cases: binding, human
TRAV12-1 TCR NR1C = conditions: pH 7.5
TRAV12-2 TCR NR2F = conditions: pH 7.5
TRAV12-1 TCR NR1A = conditions: pH 7.5
TRAV12-1 TCR NR1D = conditions: pH 7.5
TRAV12^+ TCRs = tested on: TRAV12^+ TCRs

With TLDPRSFLL [PAR1] the “KD, NR1C” value (TRAV12-1 TCR NR1C) was “N.B” and the “KD, NR2F” value (TRAV12-2 TCR NR2F) was “N.B”.
For YLQPSTFLL [S^269–277R273S], the “KD, NR1C” value (TRAV12-1 TCR NR1C) was “N.B”, the “KD, NR2F” value (TRAV12-2 TCR NR2F) was “N.B” and the “KD, NR1A” value (TRAV12-1 TCR NR1A) was “N.B”. For the same sequence, the “KD, NR1D” value (TRAV12-1 TCR NR1D) was “N.B” and the “TCR binding to HLA-A2 presenting the changed epitope” value (TRAV12^+ TCRs) was “completely abrogated TCR binding”.
